In the supplement of paper PMC10307832:

Legend:
Assay in all cases: relative viability (nuclei count vs DMSO), 5 days (fraction); higher = more cells survive
Metformin + Linsitinib = compound: CN(C)C(=N)NC(=N)N [Metformin] + C[C@]1(O)C[C@@H](c2nc(-c3ccc4ccc(-c5ccccc5)nc4c3)c3c(N)nccn32)C1 [Linsitinib] (partner 1 µM)
Method in brief: (§1)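 Nuclei were stained with Hoechst during a one-step fixation (final 0.05% Triton X-100, 1% formaldehyde, 1 ug/ml Hoechst) carried out 5 days after dosing, then counted on 4× images. The cells, lung cancer lines in 1536-well plates, had been dosed by pin tool the day after seeding with one drug alone or a fixed anchor-drug dose plus five library-drug doses (not always all listed) in √10 steps. Relative viability is the nuclei count in treated wells divided by that in vehicle wells, and each value is the median of duplicate plates.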

Metformin + Trametinib = compound: CN(C)C(=N)NC(=N)N [Metformin] + CC(=O)Nc1cccc(-n2c(=O)n(C3CC3)c(=O)c3c(Nc4ccc(I)cc4F)n(C)c(=O)c(C)c32)c1 [Trametinib] (partner 0.02 µM)
Method in brief: as §1

Metformin + Navitoclax = compound: CN(C)C(=N)NC(=N)N [Metformin] + CC1(C)CCC(c2ccc(Cl)cc2)=C(CN2CCN(c3ccc(C(=O)NS(=O)(=O)c4ccc(N[C@H](CCN5CCOCC5)CSc5ccccc5)c(S(=O)(=O)C(F)(F)F)c4)cc3)CC2)C1 [Navitoclax] (partner 0.5 µM)
Method in brief: as §1

Metformin + Palbociclib = compound: CN(C)C(=N)NC(=N)N [Metformin] + CC(=O)c1c(C)c2cnc(Nc3ccc(N4CCNCC4)cn3)nc2n(C2CCCC2)c1=O [Palbociclib] (partner 0.5 µM)
Method in brief: as §1

Cell Line	relative viability (Metformin + Linsitinib; first compound 10 µM)	relative viability (Metformin + Linsitinib; first compound 31.62 µM)	relative viability (Metformin + Linsitinib; first compound 100 µM)	relative viability (Metformin + Linsitinib; first compound 316.23 µM)	relative viability (Metformin + Linsitinib; first compound 1000 µM)	relative viability (Metformin + Trametinib; first compound 10 µM)	relative viability (Metformin + Trametinib; first compound 31.62 µM)	relative viability (Metformin + Trametinib; first compound 100 µM)	relative viability (Metformin + Trametinib; first compound 316.23 µM)	relative viability (Metformin + Trametinib; first compound 1000 µM)	relative viability (Metformin + Navitoclax; first compound 10 µM)	relative viability (Metformin + Navitoclax; first compound 31.62 µM)	relative viability (Metformin + Navitoclax; first compound 100 µM)	relative viability (Metformin + Navitoclax; first compound 316.23 µM)	relative viability (Metformin + Navitoclax; first compound 1000 µM)	relative viability (Metformin + Palbociclib; first compound 10 µM)	relative viability (Metformin + Palbociclib; first compound 31.62 µM)	relative viability (Metformin + Palbociclib; first compound 100 µM)	relative viability (Metformin + Palbociclib; first compound 316.23 µM)	relative viability (Metformin + Palbociclib; first compound 1000 µM)
HCC-366	0.646	0.703	0.75	0.559	0.691	0.301	0.289	0.23	0.279	0.314	1.12	1.12	1.06	0.991	1.06	0.342	0.376	0.309	0.31	0.334
HCC-827	–	0.89	0.945	0.883	0.973	0.575	0.567	0.616	0.577	0.605	–	0.96	0.982	0.923	1.01	0.452	0.501	0.481	0.469	0.615
HOP-62	0.891	1.09	0.995	1.04	0.846	0.409	0.497	0.427	0.364	0.485	0.922	0.845	1.04	0.989	0.986	0.372	0.405	0.358	0.387	0.374
IA-LM	0.119	0.729	0.611	0.404	0.78	–	–	–	–	–	–	0.93	0.941	0.686	0.645	–	–	–	–	–
LC-2-ad	–	0.716	0.628	0.695	0.678	–	0.81	0.827	0.81	0.857	–	0.26	0.167	0.18	0.311	–	0.341	0.313	0.27	0.347
LCLC-97TM1	0.175	0.17	0.146	0.187	0.243	–	0.207	0.247	0.174	0.229	0.44	0.339	0.547	0.276	0.486	–	0.239	0.321	0.209	0.21
LCLC-103H	1.05	1.26	1.06	1.12	1.19	0.72	0.672	0.745	0.696	0.684	–	–	–	–	–	0.465	0.561	0.532	0.437	0.495
LK-2	0.906	0.996	0.948	0.694	0.81	0.829	1.23	1.54	1.08	1.26	0.86	1.15	1.2	0.933	1.2	0.86	0.837	0.706	0.718	0.877
LOU-NH91	1.01	0.876	0.986	1.09	0.905	0.732	0.76	0.786	0.766	0.761	0.867	0.717	0.751	0.766	0.767	0.524	0.523	0.441	0.518	0.517
